Consider eleven compounds from ChEMBL document CHEMBL1201862, “PubChem BioAssay data set” (2004).

Some test systems named below: U-251; RXF 393; SNB-19; SK-MEL-5; MDA-N; MDA-MB-231; Hs-578T; OVCAR-5; OVCAR-8; MCF7; LOX IMVI; Malme-3M; SF-539; MOLT-4; HCT-116; HOP-62; OVCAR-4; HCT-15; UACC-257; SK-MEL-2.
What all share (assay): NCI-60 cell line screen, 48 h

SMILES strings stand for the structures. Counter-ions that a name gives are not always drawn.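 Test compounds were applied to cells in 96-well plates for 48 hours at 5 doses. The concentration for 50% growth inhibition is given as GI50.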 Active and inactive are the calls of the source. Cut-off read from the data, not from the text of the source: active = GI50 up to about 1.1 µM and inactive = higher. Bounds are passed on as bounds.

Regarding `O=C1C(Cl)=C(N2CCN(c3ccccn3)CC2)C(=O)c2c(O)ccc(O)c21`, the GI50 in the test on U-251 is 8.49 µM (inactive); in the test on RXF 393, 1.74 µM (inactive); in the test on SNB-19 it was 5.92 µM (inactive); in the test with SK-MEL-5 it was 1.42 µM (inactive); with MDA-N it was 1.21 µM (inactive); with MDA-MB-231, 1.74 µM (inactive). In addition, the GI50 with Hs-578T was 1.84 µM (inactive); in the test on OVCAR-5, 6.08 µM (inactive); in the test on OVCAR-8, 2.12 µM (inactive); in the test on MCF7 it was 1.42 µM (inactive); in the test on LOX IMVI, 0.157 µM (active); with Malme-3M, 1.65 µM (inactive). In addition, the GI50 is 1.79 µM (inactive) with SF-539; 0.456 µM (active) in the test on MOLT-4; 1.7 µM (inactive) with HCT-116; 4.67 µM (inactive) in the test with HOP-62; 1.59 µM (inactive) with OVCAR-4; 1.12 µM in the test on HCT-15. For the same compound, the GI50 in the test with UACC-257 was 1.84 µM (inactive).

Consider `C=CC(=O)Nc1ccc(NC(=O)C=C)c2c1C(=O)c1ccccc1C2=O`, for which the GI50 in the test with U-251 is 20.9 µM (inactive); in the test with SNB-19 it was > 100 µM (inactive); in the test on SK-MEL-5, 60.1 µM (inactive); in the test on MDA-N it was 36.1 µM (inactive); with MDA-MB-231, 97.7 µM (inactive); in the test with Hs-578T, > 100 µM (inactive). Further, the GI50 in the test on OVCAR-5 is > 100 µM (inactive); in the test with OVCAR-8, 27.7 µM (inactive); in the test on MCF7, 21 µM (inactive); with LOX IMVI, 5.07 µM (inactive); in the test with Malme-3M, > 100 µM (inactive); in the test on SF-539, 24.8 µM (inactive). In addition, the GI50 with SK-MEL-2 is 69.3 µM (inactive); in the test on MOLT-4, 21.6 µM (inactive); in the test on HCT-116 it was 62.8 µM (inactive); with HOP-62, > 100 µM (inactive); with HCT-15 it was 41.9 µM; with UACC-257 it was > 100 µM (inactive).

Turning to `N#Cc1ncn(CCO)c1N`, the GI50 with U-251, with SNB-19, in the test with SK-MEL-5, in the test on MDA-N, with MDA-MB-231 and with Hs-578T was > 100 µM (inactive) in each case. For the same compound, the GI50 in the test on OVCAR-5, in the test with OVCAR-8, in the test with MCF7, in the test on LOX IMVI, with Malme-3M and in the test on SF-539 was > 100 µM (inactive) throughout. Further, the GI50 is > 100 µM (inactive) in the test on SK-MEL-2; > 100 µM (inactive) with MOLT-4; > 100 µM (inactive) in the test with HCT-116; > 100 µM (inactive) with HOP-62; > 100 µM (inactive) in the test on OVCAR-4; above 100 µM in the test with HCT-15. Further, the GI50 in the test with UACC-257 was > 100 µM (inactive).

`O=c1[nH]nc(Cc2ccc(Cl)cc2)n1Nc1ccccc1`: the GI50 was > 100 µM (inactive) in the test on U-251; > 100 µM (inactive) in the test on SNB-19; > 100 µM (inactive) in the test on SK-MEL-5; > 100 µM (inactive) in the test with MDA-N; > 100 µM (inactive) in the test on MDA-MB-231; 47.9 µM (inactive) with Hs-578T. For the same compound, the GI50 was > 100 µM (inactive) in the test with OVCAR-5; > 100 µM (inactive) with OVCAR-8; > 100 µM (inactive) with MCF7; > 100 µM (inactive) in the test with LOX IMVI; > 100 µM (inactive) in the test with Malme-3M; 80 µM (inactive) with SF-539. In addition, the GI50 in the test on SK-MEL-2 was > 100 µM (inactive); in the test with MOLT-4, > 100 µM (inactive); in the test on HCT-116, > 100 µM (inactive); with HOP-62, 79.6 µM (inactive); in the test on OVCAR-4, > 100 µM (inactive); in the test with HCT-15 it was above 100 µM. The GI50 with UACC-257 is > 100 µM (inactive).

With `C[C@@H]1CCC2C(C)(C)C(/C=C\C=O)C3(C)OC213` (stereo partly specified), the GI50 with U-251 was 28.6 µM (inactive); in the test on RXF 393, 33.3 µM (inactive); in the test with SNB-19 it was 45.4 µM (inactive); in the test with SK-MEL-5, 20.3 µM (inactive); with MDA-N, 26 µM (inactive); in the test on MDA-MB-231, 49.2 µM (inactive). Besides, the GI50 with Hs-578T was 21.5 µM (inactive); in the test with OVCAR-5 it was 24.5 µM (inactive); in the test with OVCAR-8 it was 20.2 µM (inactive); in the test with MCF7, 40.6 µM (inactive); in the test with Malme-3M it was 24.5 µM (inactive); in the test with SK-MEL-2 it was 42.9 µM (inactive). The GI50 in the test on MOLT-4 is 31.8 µM (inactive); in the test on HCT-116, 27.9 µM (inactive); in the test with HOP-62, 38.9 µM (inactive); with OVCAR-4, 54.5 µM (inactive); with HCT-15, 25.4 µM; with UACC-257, 45.8 µM (inactive).

On to `CCOC(=O)c1nnsc1N/N=C\c1ccc([N+](=O)[O-])cc1`, for which the GI50 in the test on U-251 was > 100 µM (inactive); in the test on RXF 393, > 100 µM (inactive); with SNB-19, 70.1 µM (inactive); in the test with SK-MEL-5, > 100 µM (inactive); in the test with MDA-N, > 100 µM (inactive); with MDA-MB-231 it was 79.8 µM (inactive). The GI50 with Hs-578T was > 100 µM (inactive); in the test on OVCAR-5 it was > 100 µM (inactive); in the test with OVCAR-8, 54.7 µM (inactive); in the test with MCF7, > 100 µM (inactive); in the test on Malme-3M it was > 100 µM (inactive); in the test with SK-MEL-2 it was > 100 µM (inactive). The GI50 in the test on MOLT-4 was > 100 µM (inactive); with HCT-116, > 100 µM (inactive); in the test with HOP-62, 60 µM (inactive); with OVCAR-4, > 100 µM (inactive); with HCT-15, above 100 µM; in the test on UACC-257, > 100 µM (inactive).

Regarding `CCN1CCCC(Nc2cc(C)nc(NC(=N)Nc3ccc(Cl)c(Cl)c3)n2)C1` (stereo unspecified), the GI50 is 1.3 µM (inactive) with U-251; 2.14 µM (inactive) in the test with SNB-19; 2.08 µM (inactive) in the test on SK-MEL-5; 1.67 µM (inactive) in the test on MDA-N; 1.62 µM (inactive) with MDA-MB-231; 2.02 µM (inactive) with Hs-578T. Also, the GI50 in the test on OVCAR-5 is 2.74 µM (inactive); with MCF7, 1.79 µM (inactive); with Malme-3M, 2.39 µM (inactive); with SF-539, 1.88 µM (inactive); in the test with SK-MEL-2 it was 2.04 µM (inactive); in the test on MOLT-4 it was 0.658 µM (active). Also, the GI50 with HCT-116 was 1.26 µM (inactive); with HOP-62, 1.43 µM (inactive); in the test on OVCAR-4, 1.85 µM (inactive); in the test on HCT-15, 1.74 µM.

With `N#Cc1c(N)c2c(c(-c3ccccc3)c1-c1ccccc1)C(=O)N(N)C2=O`, the GI50 in the test on U-251 is > 100 µM (inactive); with RXF 393 it was 58.7 µM (inactive); with SNB-19, > 100 µM (inactive); in the test with SK-MEL-5 it was 87.9 µM (inactive); with MDA-N, > 100 µM (inactive); in the test on MDA-MB-231, > 100 µM (inactive). In addition, the GI50 with Hs-578T was 60.1 µM (inactive); with OVCAR-5 it was > 100 µM (inactive); in the test with OVCAR-8 it was > 100 µM (inactive); in the test with MCF7 it was > 100 µM (inactive); in the test on Malme-3M, > 100 µM (inactive); in the test with SF-539, 47.1 µM (inactive). Besides, the GI50 was > 100 µM (inactive) with SK-MEL-2; 70.6 µM (inactive) in the test with MOLT-4; > 100 µM (inactive) with HCT-116; > 100 µM (inactive) with OVCAR-4; above 100 µM in the test on HCT-15; > 100 µM (inactive) in the test with UACC-257.

As to `O=C1CC(Nc2ccccc2)c2c(Cl)sc(Cl)c21` (stereo unspecified), the GI50 was 1.68 µM (inactive) with U-251; 5.19 µM (inactive) in the test on SNB-19; 4.66 µM (inactive) with SK-MEL-5; 1.65 µM (inactive) in the test with MDA-N; 1.92 µM (inactive) in the test with MDA-MB-231; 2.42 µM (inactive) in the test on Hs-578T. In addition, the GI50 with OVCAR-5 is 2.34 µM (inactive); in the test with OVCAR-8, 1.4 µM (inactive); in the test with MCF7 it was 1.47 µM (inactive); in the test with LOX IMVI it was 0.39 µM (active); with Malme-3M it was 1.42 µM (inactive); with SF-539, 0.527 µM (active). The GI50 was 1.89 µM (inactive) with SK-MEL-2; 0.484 µM (active) with MOLT-4; 1.19 µM (inactive) with HCT-116; 2.57 µM (inactive) in the test with HOP-62; 2.01 µM (inactive) in the test on OVCAR-4; 0.767 µM in the test on HCT-15. The GI50 in the test on UACC-257 was 1.85 µM (inactive).

As for `COc1cc2cc3c4cc(OC)c(OC)cc4cc[n+]3c(C)c2cc1OC` [CORALYNE], the GI50 was 9.59 µM (inactive) in the test on U-251; 13.4 µM (inactive) in the test on SNB-19; 72.1 µM (inactive) in the test with SK-MEL-5; > 100 µM (inactive) in the test with MDA-N; > 100 µM (inactive) in the test with MDA-MB-231; 24.9 µM (inactive) with Hs-578T. The GI50 with OVCAR-5 was > 100 µM (inactive); in the test on OVCAR-8, > 100 µM (inactive); with MCF7, > 100 µM (inactive); with LOX IMVI it was > 100 µM (inactive); with Malme-3M it was 60.1 µM (inactive); in the test with SF-539 it was 41.7 µM (inactive). The GI50 was > 100 µM (inactive) in the test on SK-MEL-2; > 100 µM (inactive) in the test on MOLT-4; > 100 µM (inactive) in the test on HCT-116; 67.5 µM (inactive) in the test on OVCAR-4; 48.2 µM in the test on HCT-15; 35.4 µM (inactive) with UACC-257.

As for `CN[C@@H](C)[C@@H](O)c1ccccc1` [PSEUDOEPHEDRINE HYDROCHLORIDE], the GI50 is > 100 µM (inactive) in the test on U-251; > 100 µM (inactive) in the test on SNB-19; > 100 µM (inactive) with SK-MEL-5; > 100 µM (inactive) with MDA-N; > 10 µM (inactive) with MDA-MB-231; > 100 µM (inactive) with Hs-578T. The GI50 in the test on OVCAR-5, with OVCAR-8, in the test with MCF7, in the test with LOX IMVI, in the test with Malme-3M and with SF-539 was > 100 µM (inactive) throughout. Moreover, the GI50 in the test on SK-MEL-2 was > 100 µM (inactive); with MOLT-4, > 100 µM (inactive); in the test on HCT-116, > 100 µM (inactive); in the test on HOP-62, > 100 µM (inactive); in the test with OVCAR-4, > 100 µM (inactive); with HCT-15, above 100 µM. Also, in the test on UACC-257, the GI50 was > 100 µM (inactive).
